The record followed here is patent US20020049157A1, “Use of proteasome inhibitors for treating cancer, inflammation, autoimmune disease, graft rejection and septic shock” (priority 1998, published 2002).

Assay [1] concerns Bik. As to the kind of experiment: Immunoblotting of Bik in wild type Namalwa cells. To be noted: 6 h; lactacystin 6 μM, staurosporine 0.3 μM. It counts as cell-based, human. How it is done: Jurkat cells, wild type Namalwa cells and Bcl-xL transfected Namalwa cells were treated with medium (lanes 1), staurosporine (0.3 μM, lanes 2) and lactacystin (6 μM, lanes 3) for 6 H. The proteins from the mitochondrial fraction of these cells were analyzed by immunoblotting and the amount of Bik, Bcl-xL, Bax, and Bak evaluated. The same membranes were used sequentially and probed with different antibodies against these factors. A nonspecific band recognized by a monoclonal antibody against cytochrome […] (COX) was used as control for even sample loading in the lanes.

For assay [2], the system named is CD25. The experiment in a line: CD25 (IL-2Rα) upregulation by two-color flow cytometry. Type of assay: cell-based, human. To be noted: PHA; LAC 10 μM added in the beginning of the culture. The method, then:
CD25 expression on T cells was evaluated by anti-CD25-PE/anti-CD3-FITC two-color flow cytometry. Similar results were obtained in two independent experiments, and a representative one is shown. The data are presented as two color histograms in forms of contours, as well as in an overlay histogram.
In the four systems of T and B cell activation and proliferation studied in the first section, the growth promoting activity of IL-2 is indirectly (for stimulation by PHA, anti-CD3, and anti-CD28 plus ionomycin), or directly (for SAC plus IL-2) involved. We then investigated the role of proteasome in IL-2Rα expression and IL-2 production. […] Under the experimental condition used, the viability of the LAC-treated cell was reasonable (>80% at 40 h) as described in the previous section as LAC was added only once initially. Moreover, no consistent change of IL-2 production in LAC-treated cells was a functional indication that the cell viability was reasonable and is not of a concern in interpreting the data. The results from this section indicate that IL-2Rα upregulation but not IL-2 production is proteasome-dependent, and the suppressed IL-2Rα expression likely contributes to LAC's inhibitory effect on T cells activation and proliferation. The Proteasome Activity is Critically Required Between G0 and G1/S Boundary in T Cells […]

The test system of assay [3] is mouse lymph node cells. As to the kind of experiment: Aggregate formation of Con A-stimulated lymph node cells. Type of assay: cell-based. The note with it: 2 μg/ml Con A plus 10 μM lactacystin; 24 h. An excerpt:
Cell-cell interaction is essential in antigen presentation and in T cell's help to T and B cells. The adhesion molecules are necessary to establish the cell-cell interaction. Blocking the adhesion molecules ICAM-1 and LFA-1 is known to inhibit immune responses and to suppress graft rejection. […] Therefore, inhibition of the proteasome activity will be a useful way to control undesirable immune responses during graft rejection, autoimmune diseases, and inflammation.

Assay [4] has as its system p21^Cip1. The experiment in a line: Immunoblotting of p21Cip1 level in T cells. It counts as cell-based, human. To be noted: PHA; LAC 10 μM added once at the beginning. How it is done:
Tonsillar T cells were stimulated with PHA (2 μg/ml) for 16 h, 40 or 64 h in the absence or presence of LAC (10 μM). For the 16 h and 40 h culture, LAC was added once at 0 h. For the 64 h culture, LAC was added once at 40 h. The cell lysates were resolved in 10% SDS-PAGE, and blotted onto PVDF membranes. The membranes were hybridized with rabbit anti-p27^Kip1 antisera (FIG. 9A) or with anti-p21^Cip1 antisera (FIG. 9B) followed by ^125-protein A. The experiments were performed three times, and similar results were obtained. Representative data is shown.
In addition to the cyclin levels, the CDK activities are also controlled by several low molecular weight inhibitors. We have examined in this study the effect of the proteasome on the CDK inhibitors p27^Kip1 (Hall et al., 1995, supra) and p21^Cip1 (el-Deiry et al., 1993, Cell 75:817). […] This is in agreement with previous reports (Hengst et al., 1996, Science 271:1861; Nourse et al., 1994, Nature 372:570). […] The blockage was less obvious when assayed at 40 h, probably because the gradual loss of LAC activity during the 40 h culture. […]
Immunoblotting was employed to evaluate the levels of Cyclin E, cyclin A, p21^Cip1 and p27^Kip1. […] The cleared lysates were quantitated for protein concentrations. […] The signals on the membrane were detected by [^125I]-protein A followed by autoradiography.

Take `CC(=O)N[C@@H](CSC(=O)[C@]1([C@@H](O)C(C)C)NC(=O)[C@H](C)[C@@H]1O)C(=O)O` [LAC, lactacystin]: the “accumulation of Bik in Namalwa cells” value in assay [1] was “accumulates”. The “CD25 upregulation in CD3+ T cells” value in assay [2] was “significantly inhibited”. Moreover, the aggregate formation entry in assay [3] is reported as “effectively block the aggregate formation”. In addition, in assay [4], the “upregulation of p21Cip1 in the G1 phase” value was “strongly suppressed the upregulation”.
